Values of other authors, collected in paper PMC6966182 (CPT: Pharmacometrics & Systems Pharmacology, 2019).
pKi: −log10 of the molar value. Read-outs that look alike come from different tables or passages of the source.

Assays:
HIV = conditions: TFV‐DP concentration in PBMC
OAT3 = conditions: read-out: OAT3 Transporter (K i) (renal); SimCYP input
[1] = not given; remark: listed apart in the source
[2] = not given; remark: listed apart in the source
PBMC = conditions: SimCYP input
[3] = not given; remark: listed apart in the source
[4] = not given; remark: listed apart in the source
[5] = absorption rate constant, SimCYP input
[6] = SD TFV + PRO, healthy volunteers, GM (95% confidence interval)
[7] = SD TFV–PRO, healthy volunteers, GM (95% confidence interval)

SMILES: CC(Cn1cnc2c(N)ncnc21)OCP(=O)(O)OP(=O)(O)OP(=O)(O)O (stereo in doubt) [TFV‐DP, tenofovir di‐phosphate]
- increase at the intracellular level with PRO (at 24 hours): ~ 30%
- accumulation of TFV‐DP in PBMCs (daily TDF administration): greater than eightfold
- EC90 (HIV): 16 fmol/10^6 cells

SMILES: CCCN(CCC)S(=O)(=O)c1ccc(C(=O)O)cc1 [PRO, probenecid]
- maximum tolerated dose [1]: 2 g

SMILES: C[C@H](Cn1cnc2c(N)ncnc21)OCP(=O)(O)O [TFV, tenofovir]
- TFV in circulation available for transporter‐mediated secretion [2]: 20–30%
- bioavailability [2]: ~ 25%
- increase in TFV systemic exposure with food ([2]; TDF given with high‐fat or light meals, ref Other studies): ~ 35%
- Efflux Clint,t (PBMC additional organ) (PBMC): 1.288 µL/minute11, 12
- Uptake J max (PBMC additional organ) (PBMC): 10.44 pmol/minute/whole organ11, 12
- Uptake K m (PBMC additional organ) (PBMC): 0.355 µM11, 12
- AUC0‐INF OBS [3, 6]: 6,349 (5,598–7,200) ng • hour/mL
- Cmax OBS [3, 6]: 538 (494–585) ng/mL
- AUC0‐INF OBS [3, 7]: 3,973 (3,576–4,415) ng • hour/mL
- CLr OBS [3, 7]: 15.4 (12.2–19.4) L/hour
- Cmax OBS [3, 7]: 529 (451–620) ng/mL
- increase in single‐dose TFV overall plasma exposure (AUC0‐INF) ([3]; in the presence of 2 g PRO, fasted healthy volunteers, as predicted): 60%
- change in TFV Cmax ([3]; in the presence of 2 g PRO, single dose, as predicted): nearly unchanged
- fraction unbound (f u) [4]: > 0.9
- k a [5]: 1.03 1/h11
